Data as given in PubChem BioAssay (NCI).
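Cultured in 96-well plates, cells were exposed to test compound for 48 hours across five concentrations. Here, GI50 denotes the concentration required for 50% inhibition of growth. TGI: total growth inhibition.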

tested on: IGROV1 ovarian; test: NCI anticancer screen, dose series, 48 h

| Compound | GI50 | TGI |
| --- | --- | --- |
| [O-][Cl+3]([O-])([O-])[O-].[O]=[Ru]=[O].c1ccc(-c2ccccn2)nc1.c1ccc(-c2ccccn2)nc1 | 58.8 µM | > 100 µM |
| Cc1ccc(NC2=C3CCCCC3OC2=O)cc1 (stereo not given) | 54.3 µM | > 100 µM |
| O=C1C(C(Nc2ccccc2)c2ccccc2)=C([O-])c2ccccc21.O=C1C(C(Nc2ccccc2)c2ccccc2)=C([O-])c2ccccc21.[Cu+2] (stereo not given) | 54.5 µM | > 100 µM |
| CN(C)CC1CCC/C1=N/OC(=O)c1ccccc1 (stereo not given) |  | > 100 µM |
| CCOC(=O)C1Sc2ccccc2N=C1C (stereo not given) |  | > 100 µM |
| O=C(NC1C=CCC2C(=O)N(c3ccccc3)C(=O)C12)OCc1ccccc1 (stereo not given) |  | > 100 µM |
| CCC(C)SC1SCC2C(=O)N(C)C3(CC3C)C(=O)OCC(NC(=O)c3nc4ccccc4cc3O)C(=O)NC(C)C(=O)N(C)C1C(=O)N(C)C1(CC1C)C(=O)OCC(NC(=O)c1nc3ccccc3cc1O)C(=O)NC(C)C(=O)N2C (stereo not given) |  | 3.54 µM |
| Cc1[cH-]c(=O)n(-c2ccccc2)n1.[Au+].[Au].c1ccc([PH+](c2ccccc2)c2ccccc2)cc1.c1ccc([PH+](c2ccccc2)c2ccccc2)cc1 | 13.6 µM | 31.7 µM |
| CC1(C)CC(c2c[nH]c3ccccc23)=CC2=Nc3ccccc3C21O (stereo not given) |  | > 100 µM |
| CN1C(=O)C(=O)N2c3ccc(Cl)cc3C3(c4ccccc4)N=CC12O3 (stereo not given) |  | 40 µM |
| O=[N+]([O-])c1cc([N+](=O)[O-])c(C(F)(F)F)cc1NN=C(c1ccc(O)cc1)c1ccc(O)cc1 | 3.79 µM | 14.4 µM |
| N#CCCC[Si]12OCCN(CCO1)CCO2 |  | > 100 µM |
| NC(=S)N/N=C\c1nccc2c(C(F)(F)F)cccc12 | 0.365 µM | 14.8 µM |
| CC(=O)N[C@@H](Cc1ccc(OP(=O)(O)O)cc1)C(=O)N[C@H]1CCC(=O)N2CCC[C@@H](C(=O)Nc3cccc4ccccc34)N2C1=O | > 25 µM | > 25 µM |
| O=C(/C=C/c1c(O)ccc2ccccc12)c1ccc([N+](=O)[O-])cc1 |  | > 100 µM |

tested on: MDA-MB-231 breast; test: NCI anticancer screen, dose series, 48 h

| Compound | GI50 | TGI |
| --- | --- | --- |
| COc1cc(-c2nn(-c3cccc(NC(=O)c4ccccc4)c3)cc2-c2ccncc2)ccc1Cl | 1.06 µM | > 36.9 µM |
| Cc1cc(Nc2ccc(C)c(Cl)c2)n2nc(C(F)(F)F)nc2n1 | 23.7 µM | > 100 µM |
| COc1ccc(Cn2c(Br)c3c(c2Br)-c2nc(N)sc2CC3)cc1 | 5.97 µM | 26.8 µM |
| C#Cc1cccc(Nc2nc3cc([N+](=O)[O-])ccc3nc2Nc2ccc(O)cc2)c1 | 1.8 µM | 3.8 µM |
| CN(C)CC(O)c1ccc(/C=C/c2ccc(Cl)cc2)cc1 (stereo not given) | 1.7 µM | 3.14 µM |
| Cc1nnc2ccnn2c1C | > 100 µM | > 100 µM |
| COc1cc2c(cc1OC)-c1cc(OC)c(OC)cc1C(CN(C)C)C2 (stereo not given) | > 10 µM | > 10 µM |
| CC(C)(C)[Si](C)(C)OC1[C@@H](O[Si](C)(C)C(C)(C)C)[C@@H](CNC(=O)NC(=O)C(F)(F)F)O[C@H]1n1cnc2c(NC(=O)Nc3ccccc3)ncnc21 (stereo not given in full) | 6.16 µM | 14.2 µM |
| Cc1ccc(-c2nc(N3CCNCC3)c3oc(-c4ccc(C)cc4)nc3n2)cc1 | 1.77 µM | 3.45 µM |
| Cc1ccc(NC2=C3CCCCC3OC2=O)cc1 (stereo not given) | 35.2 µM | > 100 µM |
| COC1=CC(=O)C(C2(OC(C)C)OC(=O)C(Cl)=C2Cl)=CC1=O (stereo not given) |  | > 100 µM |
| CCC(C)SC1SCC2C(=O)N(C)C3(CC3C)C(=O)OCC(NC(=O)c3nc4ccccc4cc3O)C(=O)NC(C)C(=O)N(C)C1C(=O)N(C)C1(CC1C)C(=O)OCC(NC(=O)c1nc3ccccc3cc1O)C(=O)NC(C)C(=O)N2C (stereo not given) |  | 0.000567 µM |
| COc1ccc(CN2C(=O)C(Cl)=C(Nc3cccc(C(F)(F)F)c3)C2=O)cc1 | 3.39 µM | 18 µM |
| O=[N+]([O-])c1cc([N+](=O)[O-])c(C(F)(F)F)cc1NN=C(c1ccc(O)cc1)c1ccc(O)cc1 | 3.11 µM | 9.41 µM |
| NC(=S)N/N=C\c1nccc2c(C(F)(F)F)cccc12 | 0.281 µM | 17.6 µM |
